In publication PMC11077972, “Optimization of the antifungal properties of the bacterial peptide EntV by variant analysis” (mBio, 2024):
Where a SMILES comes first, the peptide text is derived from it. Bridges are numbered along the chain shown (N, C = ends). [ ]: non-standard residue; d: D form. R8 = C=CCCCCCC[C@@](C)(N)C(=O)O; S5 = C=CCCC[C@](C)(N)C(=O)O

Tests used:
[1] = tested on: C. albicans; experiment: C. elegans survival assay after infection with C. albicans; assay type: in vivo, Candida albicans; conditions: 1 nM peptide; for Median survival: C. albicans infected C. elegans, 25°C, experiment with 12aa (i+7 staple)
Description: C. elegans infection assays were performed with strain glp-4(bn2);sek-1(km-4) ([40]), which were propagated and maintained on E. coli strain OP50 grown as lawns on nematode growth medium (NGM) agar using standard techniques ([58]). To synchronize the nematodes to the same stage of growth, L1 stage worms on non-starved plates were washed off, filtered through a 10- µm filter (pluriSelect, pluriStrainer 10 µm), harvested by centrifugation at 1,500 rpm for 60 seconds, transferred to OP50-seeded plates, and grown to the L4 stage.
To prepare the infection plates, fungal strains were grown in BHI broth overnight at 30°C with agitation. About 500 µL of the culture was plated onto BHI solid medium containing gentamycin (10 µg/mL) and grown for 24 hrs at 37°C. The synchronized L4 C. elegans nematodes were then washed off the OP50 plates in 2 mL sterile M9 buffer and washed once, centrifuging at 800 rpm for 30 seconds to collect the nematodes. Nematodes were infected by placing them on the fungal lawn for 4 hrs at 25°C. Following this exposure, they were washed off the plate and washed four times with 2 mL of sterile M9. The nematodes were then pipetted (~30 per well with two wells per condition for a total of ~60 worms assayed) into six-well plates with 2 mL of the liquid medium (20% BHI broth and 80% M9) containing 1 nM of the peptide. A DMSO-untreated control was used with each experiment. Plates were incubated at 25°C, and worm death was scored daily. Kaplan–Meier survival curves were generated and analyzed, as described in the quantification and statistical analysis section.

[2] = tested on: C. albicans biofilm; experiment: C. albicans biofilm assay in artificial saliva medium (crystal violet); assay type: cell-based, Candida albicans; conditions: 10 nM peptide
Description: Briefly, C. albicans strains were grown in YPD broth for 18 hrs at 30°C with agitation and then sub-cultured for 4 hrs in the same conditions. Cells were then collected by centrifugation at 16,000 x g for 30 s, washed twice in PBS, and adjusted to a concentration of 5 × 10^6 cells/mL (measured with Countess II, Life Technologies) in PBS treated with the 10 nM peptide. The cell suspension was incubated for 1 hr at 30°C with agitation at 200 rpm. Then, 100 µL of the cell suspension was added to wells of a 96-well tissue culture-treated polystyrene plate (Falcon). The PBS and unadhered cells were removed and then replaced with 200 µL of the artificial saliva medium ([15], [60]) containing the 10 nM peptide. The plate was then incubated at 37°C for 48 h.
After incubation, the medium was gently removed along with any planktonic cells. The biofilm was then stained for 20 min with 50 µL of 0.08% crystal violet solution (Sigma). The crystal violet stain was then aspirated, and the wells were washed four times with sterile water. Biofilms were de-stained with 200 µL of 200 proof ethanol for 20 min, and 100 µL of the ethanol solution was transferred to a new well for analysis.

CC(C)C[C@@H]1NC(=O)[C@H](C)NC(=O)[C@H](CC(C)C)NC(=O)[C@H](CCC(N)=O)NC(=O)CNC(=O)[C@@](C)(NC(=O)[C@@H](N)C(C)C)CCC/C=C\CCCCCC[C@](C)(C(=O)N[C@H](C(=O)N[C@@H](CCC(N)=O)C(=O)N[C@@H](CS)C(N)=O)C(C)C)NC(=O)[C@H](Cc2c[nH]c3ccccc23)NC1=O [12aa (i+7 staple)] (H-V[S5]GQLALW[R8]VQC-NH2; staple (Z) 2-9)
Protection of C. elegans from C. albicans infection relative to parent peptide ([1]; survival curves, Mantel–Cox log rank): remained as effective as the original | Median survival ([1]; trial 1): 12 days | Median survival ([1]; trial 2): 11.5 days | Antifungal activity in biofilm assay [2]: fully active
